According to PMC3050028 (Neuron, 2011):

Target: T1, IR84a (Drosophila melanogaster, UniProt Q9VIA5)
T1 sequence (Q9VIA5 25-644): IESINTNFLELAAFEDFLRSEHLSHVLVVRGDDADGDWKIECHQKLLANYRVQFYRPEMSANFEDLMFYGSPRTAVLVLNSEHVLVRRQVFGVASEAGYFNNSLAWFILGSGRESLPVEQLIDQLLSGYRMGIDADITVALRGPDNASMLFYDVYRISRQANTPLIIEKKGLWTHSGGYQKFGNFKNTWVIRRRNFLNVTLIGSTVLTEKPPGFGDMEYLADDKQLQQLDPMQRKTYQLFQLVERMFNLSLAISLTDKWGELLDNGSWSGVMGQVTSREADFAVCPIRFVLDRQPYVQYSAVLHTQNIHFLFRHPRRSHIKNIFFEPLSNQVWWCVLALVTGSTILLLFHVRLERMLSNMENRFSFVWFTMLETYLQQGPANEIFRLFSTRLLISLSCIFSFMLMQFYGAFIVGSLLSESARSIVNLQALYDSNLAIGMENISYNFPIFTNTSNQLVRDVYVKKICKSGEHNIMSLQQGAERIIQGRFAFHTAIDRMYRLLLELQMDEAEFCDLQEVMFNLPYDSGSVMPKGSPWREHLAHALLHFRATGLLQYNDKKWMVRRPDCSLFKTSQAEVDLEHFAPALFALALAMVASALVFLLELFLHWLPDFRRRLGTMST
T1 sequence (Q9W365 18-936 partner): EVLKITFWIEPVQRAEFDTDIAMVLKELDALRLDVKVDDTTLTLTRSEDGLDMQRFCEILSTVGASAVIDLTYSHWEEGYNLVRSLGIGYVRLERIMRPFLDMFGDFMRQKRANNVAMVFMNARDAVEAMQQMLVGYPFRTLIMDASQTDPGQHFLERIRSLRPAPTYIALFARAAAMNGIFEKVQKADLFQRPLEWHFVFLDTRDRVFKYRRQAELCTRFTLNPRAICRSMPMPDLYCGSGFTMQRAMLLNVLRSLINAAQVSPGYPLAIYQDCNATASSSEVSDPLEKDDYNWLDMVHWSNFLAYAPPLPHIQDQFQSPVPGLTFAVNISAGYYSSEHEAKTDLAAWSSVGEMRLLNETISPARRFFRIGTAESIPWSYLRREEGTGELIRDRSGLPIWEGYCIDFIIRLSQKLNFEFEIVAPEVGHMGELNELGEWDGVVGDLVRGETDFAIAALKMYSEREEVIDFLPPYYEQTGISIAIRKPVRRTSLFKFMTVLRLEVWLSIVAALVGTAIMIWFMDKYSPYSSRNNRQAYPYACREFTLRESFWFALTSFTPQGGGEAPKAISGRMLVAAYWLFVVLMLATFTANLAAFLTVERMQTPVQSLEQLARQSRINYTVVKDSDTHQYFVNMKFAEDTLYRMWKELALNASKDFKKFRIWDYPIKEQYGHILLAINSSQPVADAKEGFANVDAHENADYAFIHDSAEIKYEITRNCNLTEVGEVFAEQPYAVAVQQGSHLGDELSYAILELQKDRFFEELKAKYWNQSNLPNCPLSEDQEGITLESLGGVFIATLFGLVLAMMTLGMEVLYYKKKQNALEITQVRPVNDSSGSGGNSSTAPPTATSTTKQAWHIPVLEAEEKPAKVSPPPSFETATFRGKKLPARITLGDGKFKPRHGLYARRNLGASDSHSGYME
Format: cell-based

IC50: 39 ± 9 µM
SMILES: CC12CC3CC(C)(C1)CC(N)(C3)C2 [memantine]
